Measurements taken from patent US7230094B2, “Neutral sphingomyelinase antisense ribozyme and uses thereof” (priority 2001, dated 2007).

Assays:
Format in all cases: cell-based, human
MG-63 cells [1] = assay: Apoptosis by DAPI staining and counting of apoptotic cells; conditions: for Increase in apoptosis compared to untreated cells: N-SMase-deficient (ribozyme) cells treated with C2 ceramide; for Increase in apoptosis assessed by DAPI staining: sham-transfected cells
Protocol: FIG. 6 depicts a quantitative analysis of the effects of TNF-α, C2-Ceramide and Fas-ligand on apoptosis in mutant (CC) and WT (MG-63) cells, as well as wild type/mock transfected cells. Cells were grown on glass cover slips and incubated for 24 hours with TNF-α (20 ng/ml), cell-permeable ceramide (C2-Ceramide) (10 ng/ml) or Fas-L (1 ng/ml). Cells were fixed and stained with DAPI and photographed at 50× magnification. Apoptotic cells were counted using a hemocytometer. The basal levels of apoptotic cells were: MG-63 (3%); L-3 (3%); and CC (2.8%). Errors bars indicate ±S.D. (N=2).
WT (MG-63), LacZ (L-3) and mutant (CC) cells were grown on glass cover slips and incubated for 24 hr with TNF-α (20 ng/ml), cell-permeable ceramide (C2-ceramide) (10 ng/ml) or Fas-L (1 ng/ml). Cells were fixed and stained with DAPI stain and photographed (50×). Apoptotic cells were counted using a hemocytometer and compared to total cell counts per field. Basal levels of apoptosis were 3% untransfected, 3% control transfection, and 2.8% ribozyme transfection.

N-SMase = assay: TNF-α and Fas ligand induced N-SMase activity in WT and mutant cells; conditions: for N-SMase activity under cytokine stimulation: sham-transfected cells stimulated with TNF-α and Fas-L, basal 2.7
Protocol: FIGS. 4A–4B depict the effects of incubation with TNF-α (FIG. 4A) and Fas ligand (FIG. 4B) over time on the activity of N-SMase in mutant and WT cells. Confluent cultures of WT (MG-63) and mutant (CC) cells were incubated with serum free medium with or without TNF-α ([…]) or Fas ligand (1 ng/ml). At the indicated intervals, cells were harvested, centrifuged, and lysed in buffer containing 0.1% Triton™ X-100, 25 mM Tris (pH 7.4), 5 mM EDTA, 1 mM phenylmethylsulfonyl fluoride (PMSF), and 2 μg each of chymostatin, leupeptin, antipain, and pepstatin A. 100 μl of a reaction mixture containing 50 mM Tris (pH 7.4), 5 mM MgCl2, 0.05% Triton™ X-100, 5 mM dithiothreitol (DTT) and 10 nmol [^14C] sphingomyelin (100,000 cpm) was added to 5–10 μl of cell lysate (100 μg protein). The basal activity of N-SMase was 2.7±0.1 nmol/mg protein/hr in MG63 cells and 0.67±0.1 nmol/mg protein/hr in CC cells. These levels were defined as 100% activity. Error bars indicate ±S.D. (N=3).
Tumor necrosis factor alpha (TNF-α) is known to induce programmed cell death through stimulation of sphingomyelinase activity and generation of ceramide. This example describes the ability of the ribozyme directed against N-SMase to inhibit this pathway. The effects of incubation with TNF-α and Fas ligand over time on the activity of N-SMase in mutant and WT cells are shown in FIGS. 4A and 4B, respectively. Confluent cultures of WT (MG-63) and mutant (CC) cells were incubated with serum free medium with or without TNF-α ([…]) or Fas ligand (1 ng/ml), and the activity of N-SMase was determined by measuring the cleavage of [^14C]sphingomyelin. At 0, 10, 20, 30, 40, 50, and 60 minutes, cells were harvested, centrifuged, and lysed in buffer containing 0.1% Triton™ X-100, 25 mM Tris (pH 7.4), 5 mM EDTA, 1 mM phenylmethylsulfonyl fluoride (PMSF), and 2 μg each of chymostatin, leupeptin, antipain, and pepstatin A. 100 μl of a reaction mixture containing 50 mM Tris (pH 7.4), 5 mM MgCl2, 0.05% Triton™ X-100, 5 mM dithiothreitol (DTT) and 10 nmol [^14C]sphingomyelin (100,000 cpm) was added to 5–10 μl of cell lysate (100 μg protein). The basal activity of N-SMase was 2.7±0.1 nmol/mg protein/hr in MG63 cells and 0.67±0.1 nmol/mg protein/hr in CC cells. These levels were defined as 100% activity.

[2] = system: ceramide production by N-SMase; assay: Ceramide level, modified diacylglycerol kinase assay; conditions: sham-transfected cells stimulated with TNF-α and Fas-L
[3] = system: caspase-3 and cytochrome-C release; assay: Caspase-3 and cytochrome-C release by western analysis and densitometry; conditions: control (sham-transfected) cells
Protocol: In order to determine a dose-response relationship between the concentration of TNF-α or FasL and apoptosis, western analysis was used to quantitate release of both caspase-3 (FIG. 9) and cytochrome-C (FIG. 10).
Immunoblots for the measurement of cytochrome-C and caspase-3 were carried out after incubation of cells with TNF-α (10 ng/ml) or FasL (1 ng/ml) for 48 hours. Cells were extracted with a buffer (20 mM Hepes pH 7.5, 10 mM KCl, 1.5 mM MgCl2, 5 mM EDTA, 5 mM DTT, 2 mM phenylmethylsulfonylfluoride, 1% NonidetP40, 0.5% sodium deoxycholate, 0.1% SDS, 2 μg/ml leupeptin, 2 μg/ml aprotinin, 0.5 μg/ml benzamindine, and 250 mM sucrose) on ice for 30 minutes. After centrifugation for 10 minutes at 10,000×g, the supernatant was used for western analysis with an antibody for cytochrome-C (Pharmingen, San Diego, Calif.). For assessment of caspase-3, samples were similarly processed in addition to passage through a 21-g needle prior to centrifugation. The western analysis was performed with a rabbit polyclonal IgG antibody to caspase-3 (Santa Cruz, Calif.) raises against an epitope corresponding to amino acids 1–277, representing the full-length precursor form of CPP-32 (caspase-3). For both caspase-3 and cytochrome-C, bands were quantified with densitometric analysis.

MG-63 cells [4] = assay: Cell viability by trypan blue staining; conditions: control cells, TNF-α in various concentrations, 24 hours
Protocol: FIG. 8 depicts the effect of TNF-α on viability of wild type, ribozyme transfected and wild type/mock transfected cells. Cells ([…]) were seeded in 96 well sterile plastic trays. Upon confluence medium was replaced with serum free minimum essential medium and TNF-α (20 ng/ml). After incubation for 24 h at 37° C., viability of cells were determined by Trypan blue staining. The results represent ±S.D. of three experiments.
The population of viable cells was determined using trypan blue staining. Cells (10^4) were seeded in 96 well plates. Twenty-four hours later, the media was replaced with serum-free MEM, and TNF-α in various concentrations was added. After incubation for 24 hours at 37° C., the cells were trypsinized, and viable cells were counted after staining with trypan blue. Values were compared to the original cell count (10^4) and expressed as a percentage.

CCCCCCCCCCCCC/C=C/[C@@H](O)[C@H](CO)NC(C)=O [C2 ceramide]
Increase in apoptosis compared to untreated cells (MG-63 cells [1]): about 2.5 fold | Increase in apoptosis compared to untreated cells (MG-63 cells [1]; listed as C2-ceramide): greater than two-fold increase

Fas ligand: ligand for Fas/Apo-1 (CD95), used as apoptosis agonist [reference compound]
Increase in apoptosis assessed by DAPI staining (MG-63 cells [1]): about 4 fold | N-SMase activity under cytokine stimulation (N-SMase): 4.0 nmol/mg protein/hr | Increase in ceramide production [2]: about 2 fold | Dose-response of caspase-3 and cytochrome-C release [3]: linear dose-response relationship

Tumor necrosis factor alpha [TNF-α, reference compound]
DAPI staining (MG-63 cells [1]; control-transfected cells, TNF-α 20 ng/ml for 24 hours, compared to untransfected cells): 490% | Increase in apoptosis assessed by DAPI staining (MG-63 cells [1]): about 4 fold | Peak N-SMase activity relative to unstimulated cells (N-SMase; control transfected clones, 10 minutes after addition of TNF-α): 140% | N-SMase activity under cytokine stimulation (N-SMase): 4.0 nmol/mg protein/hr | Increase in ceramide production [2]: about 2 fold | Dose-response of caspase-3 and cytochrome-C release [3]: linear dose-response relationship | Decline in population of viable cells (MG-63 cells [4]): prompt decline
